# Data reported in ChEMBL document CHEMBL4417639, “Nt5c2 inhibitors useful for the treatment of chemotherapy resistant acute lymphoblastic leukemia” (2018).
# Calls of active or inactive are those of the source. The rule behind the calls is not given here.
# Key:
# [1] = molecular target: Cytosolic purine 5'-nucleotidase (Homo sapiens) (UniProt P49902); assay: Inhibition of basal nucleotidase activity of recombinant NT5C2 (unknown origin) pre-incubated for 10 mins before IMP substrate addition and further incubated for 5 mins in absence of ATP by malachite green assay
# [2] = molecular target: Cytosolic purine 5'-nucleotidase (Homo sapiens) (UniProt P49902); assay: Inhibition of nucleotidase activity of recombinant NT5C2 (unknown origin) pre-incubated for 10 mins before IMP substrate addition and further incubated for 5 mins in presence of 0.3 mM ATP by malachite green assay relative to control
# Chain of Cytosolic purine 5'-nucleotidase (Homo sapiens) (P49902 whole entry): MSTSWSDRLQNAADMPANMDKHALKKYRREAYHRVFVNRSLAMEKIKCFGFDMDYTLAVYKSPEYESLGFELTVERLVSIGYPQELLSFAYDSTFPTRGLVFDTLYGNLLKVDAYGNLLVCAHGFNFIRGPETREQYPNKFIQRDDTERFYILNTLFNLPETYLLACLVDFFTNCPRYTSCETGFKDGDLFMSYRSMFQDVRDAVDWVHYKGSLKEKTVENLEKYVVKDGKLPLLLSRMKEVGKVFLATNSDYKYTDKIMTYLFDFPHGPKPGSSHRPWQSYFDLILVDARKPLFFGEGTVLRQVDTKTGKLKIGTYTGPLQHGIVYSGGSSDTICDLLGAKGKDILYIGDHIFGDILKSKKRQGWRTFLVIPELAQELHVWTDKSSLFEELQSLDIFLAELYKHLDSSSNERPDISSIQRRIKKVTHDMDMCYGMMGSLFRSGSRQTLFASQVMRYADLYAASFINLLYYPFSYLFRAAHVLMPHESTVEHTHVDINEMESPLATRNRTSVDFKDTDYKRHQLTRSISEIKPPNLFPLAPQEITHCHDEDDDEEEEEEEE
SMILES,inhibition [1],inhibition [2]
Nc1nc(N2CCOCC2)cc(N2CCC(c3cc(CC(=O)O)[nH]n3)CC2)n1,Active,85%
Nc1nc2c(c(N3CCc4nc(N)sc4C3)n1)CCCC2,Active,42%
CCc1cc(NCCCc2csc(N)n2)nc(N)n1,Active,54%
Cc1nc(N2CCC(c3cc(CC(=O)O)n[nH]3)CC2)cc(-n2cccn2)n1,Active,49%

# Results, then the compound that gave them:
inhibition [1],inhibition [2],SMILES
Active,75%,Nc1nc2c(c(NCCc3csc(N)n3)n1)CCCC2
Active,62%,Cc1cc(N2CCC(c3cc(CC(=O)O)n[nH]3)CC2)nc(N2CCCC2)n1
Active,29%,CCc1nc(N)nc(N2CCCOC(CN3CCOCC3)C2)c1C (stereo unspecified)
Active,49%,CCc1c(C)nc(N)nc1NCCc1csc(N)n1
